Experimental data as given in patent publication US20220323406A1, “METHODS AND COMPOSITIONS FOR DIFFERENTIATING STEM CELLS” (Massachusetts Institute of Technology, priority 2019, published 2022).
Counter-ions that a name gives are not always drawn.

Tests used:
ENR+CD organoids = experiment: Primary screen: ATP (CellTiter-Glo 3D, CTG) cell number/viability, 2.5-D 384-well ENR+CD organoids; conditions: primary screen; for Z.CTG: standard z score;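 for all read-outs here: compounds given at plating and again on day 3 over a 6-day differentiation from ENR+CV stem-cell-enriched precursors, ATP measured on day 6, plate median as control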
[1] = test system: ENR+CD organoids (ISC to Paneth cell differentiation); experiment: Primary screen: CCh-stimulated lysozyme secretion LYZ.S, 2.5-D 384-well ENR+CD organoid differentiation; assay type: cell-based, mouse; conditions: primary screen
Text: (§1) High-throughput screening.

[2] = test system: ENR+CD organoids (ISC to Paneth cell differentiation); experiment: Primary screen: basal (non-stimulated) lysozyme secretion LYZ.NS, 2.5-D 384-well ENR+CD organoid differentiation; assay type: cell-based, mouse; conditions: primary screen; for Z.LYZ.NS: standard z score
Text: as §1

[3] = dose 0.08 uM, FC vs plate median
[4] = dose 0.40 uM, FC vs plate median
[5] = dose 2.00 uM, FC vs plate median
[6] = dose 10.00 uM, FC vs plate median
[7] = dose 0.08 uM, FC relative to plate median
[8] = dose 0.40 uM, FC relative to plate median
[9] = dose 2.00 uM, FC relative to plate median
[10] = dose 10.00 uM, FC relative to plate median

Row | Molecule | Z.CTG (ENR+CD organoids; dose 0.08 uM) | Z.CTG (ENR+CD organoids; dose 0.40 uM) | Z.CTG (ENR+CD organoids; dose 2.00 uM) | Z.CTG (ENR+CD organoids; dose 10.00 uM) | Dose.FC.CTG (ENR+CD organoids; [3]) | Dose.FC.CTG (ENR+CD organoids; [4]) | Dose.FC.CTG (ENR+CD organoids; [5]) | Dose.FC.CTG (ENR+CD organoids; [6]) | Dose.FC.LYZ.S [1, 3] | Dose.FC.LYZ.S [1, 4] | Dose.FC.LYZ.S [1, 5] | Dose.FC.LYZ.S [1, 6] | Z.LYZ.NS ([2]; dose 0.08 uM) | Z.LYZ.NS ([2]; dose 0.40 uM) | Z.LYZ.NS ([2]; dose 2.00 uM) | Z.LYZ.NS ([2]; dose 10.00 uM) | Dose.FC.LYZ.NS [2, 3] | Dose.FC.LYZ.NS [2, 4] | Dose.FC.LYZ.NS [2, 5] | Dose.FC.LYZ.NS [2, 6] | further results
1 | NCC(=O)Nc1ccc(-n2nc(C(F)(F)F)cc2-c2ccc3c(ccc4ccccc43)c2)cc1 [OSU-03012 (AR-12)] | 0.491 | 0.272 | 0.556 | 0.185 | 0.205 log2 fold change | 0.114 log2 fold change | 0.233 log2 fold change | 0.078 log2 fold change | 0.126 log2 fold change | 0.113 log2 fold change | 0.060 log2 fold change | −0.128 log2 fold change | 0.755 | 0.285 | 0.460 | −0.423 | 0.087 log2 fold change | 0.033 log2 fold change | 0.053 log2 fold change | −0.049 log2 fold change | –
2 | CN1C2CCCC1CC(NC(=O)c1nn(C)c3ccccc13)C2 (stereo not drawn) [Granisetron HCl] | – | – | – | – | – | – | – | – | – | – | – | – | – | – | – | – | – | – | – | – | Dose.FC.CTG (log2 fold change) (ENR+CD organoids; dose 0.08 uM): −0.214; Dose.FC.CTG (log2 fold change) (ENR+CD organoids; dose 0.40 uM): −0.086; Dose.FC.CTG (log2 fold change) (ENR+CD organoids; dose 2.00 uM): −0.178; Dose.FC.CTG (log2 fold change) (ENR+CD organoids; dose 10.00 uM): −0.297; Dose.FC.LYZ.S (log2 fold change) ([1]; dose 0.08 uM): 0.015; Dose.FC.LYZ.S (log2 fold change) ([1]; dose 0.40 uM): 0.131; Dose.FC.LYZ.S (log2 fold change) ([1]; dose 2.00 uM): −0.007; Dose.FC.LYZ.S (log2 fold change) ([1]; dose 10.00 uM): −0.103; Dose.FC.LYZ.NS (log2 fold change) ([2]; dose 0.08 uM): 0.061; Z.LYZ.NS (standard z score) ([2]; dose 0.08 uM): 0.531; Dose.FC.LYZ.NS (log2 fold change) ([2]; dose 0.40 uM): −0.002; Z.LYZ.NS (standard z score) ([2]; dose 0.40 uM): −0.021; Dose.FC.LYZ.NS (log2 fold change) ([2]; dose 2.00 uM): 0.018; Z.LYZ.NS (standard z score) ([2]; dose 2.00 uM): 0.155; Dose.FC.LYZ.NS (log2 fold change) ([2]; dose 10.00 uM): −0.043; Z.LYZ.NS (standard z score) ([2]; dose 10.00 uM): −0.378
3 | O=C(Nc1cc(C(F)(F)F)ccc1N1CCCCC1)c1ccncc1 [SRPIN340] | 1.005 | 1.063 | 1.083 | 1.115 | – | – | – | – | – | – | – | – | 1.004 | 0.348 | 0.846 | 0.192 | – | – | – | – | Dose.FC.CTG (ENR+CD organoids; [7]): 0.421 log2 fold change; Dose.FC.CTG (ENR+CD organoids; [8]): 0.445 log2 fold change; Dose.FC.CTG (ENR+CD organoids; [9]): 0.453 log2 fold change; Dose.FC.CTG (ENR+CD organoids; [10]): 0.467 log2 fold change; Dose.FC.LYZ.S [1, 7]: 0.112 log2 fold change; Dose.FC.LYZ.S [1, 8]: 0.098 log2 fold change; Dose.FC.LYZ.S [1, 9]: 0.100 log2 fold change; Dose.FC.LYZ.S [1, 10]: 0.078 log2 fold change; Dose.FC.LYZ.NS [2, 7]: 0.115 log2 fold change; Dose.FC.LYZ.NS [2, 8]: 0.040 log2 fold change; Dose.FC.LYZ.NS [2, 9]: 0.097 log2 fold change; Dose.FC.LYZ.NS [2, 10]: 0.022 log2 fold change
4 | CCc1c(C(=O)NCCc2ccc(N3CCCCC3)cc2)[nH]c2ccc(Cl)cc12 [Org 27569] | 0.663 | 0.173 | 0.865 | 0.646 | 0.278 log2 fold change | 0.072 log2 fold change | 0.362 log2 fold change | 0.270 log2 fold change | 0.174 log2 fold change | 0.032 log2 fold change | 0.059 log2 fold change | 0.001 log2 fold change | 1.060 | 0.445 | 0.683 | 0.248 | 0.122 log2 fold change | 0.051 log2 fold change | 0.078 log2 fold change | 0.029 log2 fold change | –
5 | I-BET151 (GSK1210151A) | – | – | – | – | – | – | – | – | – | – | – | – | – | – | – | – | – | – | – | – | Dose.FC.CTG (log2 fold change) (ENR+CD organoids; dose 0.08 uM): −0.016; Z.CTG (standard z score) (ENR+CD organoids; dose 0.08 uM): −0.039; Dose.FC.CTG (log2 fold change) (ENR+CD organoids; dose 0.40 uM): −0.174; Z.CTG (standard z score) (ENR+CD organoids; dose 0.40 uM): −0.415; Dose.FC.CTG (log2 fold change) (ENR+CD organoids; dose 2.00 uM): −0.502; Z.CTG (standard z score) (ENR+CD organoids; dose 2.00 uM): −1.200; Dose.FC.CTG (log2 fold change) (ENR+CD organoids; dose 10.00 uM): −0.935; Z.CTG (standard z score) (ENR+CD organoids; dose 10.00 uM): −2.233; Dose.FC.LYZ.S (log2 fold change) ([1]; dose 0.08 uM): −0.242; Dose.FC.LYZ.S (log2 fold change) ([1]; dose 0.40 uM): −0.344; Dose.FC.LYZ.S (log2 fold change) ([1]; dose 2.00 uM): −0.416; Dose.FC.LYZ.S (log2 fold change) ([1]; dose 10.00 uM): −0.408; Dose.FC.LYZ.NS (log2 fold change) ([2]; dose 0.08 uM): −0.116; Z.LYZ.NS (standard z score) ([2]; dose 0.08 uM): −1.010; Dose.FC.LYZ.NS (log2 fold change) ([2]; dose 0.40 uM): −0.248; Z.LYZ.NS (standard z score) ([2]; dose 0.40 uM): −2.159; Dose.FC.LYZ.NS (log2 fold change) ([2]; dose 2.00 uM): −0.299; Z.LYZ.NS (standard z score) ([2]; dose 2.00 uM): −2.601; Dose.FC.LYZ.NS (log2 fold change) ([2]; dose 10.00 uM): −0.284; Z.LYZ.NS (standard z score) ([2]; dose 10.00 uM): −2.473
